PMC5815658 (Journal of Medicinal Chemistry, 2017)
In brackets after ≈: the same amount, converted by molar mass. Entries after “also recorded” stand apart in the source; their conditions may differ. Like-named read-outs stand apart in the source and are kept apart here.

Experiments:
CRBN = target: T1, CRBN (Homo sapiens, UniProt Q96SW2); assay: Rescue of PDP 16 pirin depletion by CRBN-binding competitive ligand in SK-OV-3 cells; format: cell-based; conditions: 10 μM, 4 h pretreatment, then PDP 16 (5 nM) 2 h
T1 construct: endogenous in cells; host or cells: SK-OV-3
Protocol: Cell line: The human ovarian carcinoma cell line (SK-OV-3) was obtained from an ICR collaborator in the 1990s. It was passaged in vivo in athymic mice to increase its tumorigenicity and reliability as a xenograft, and used within 10 passages of banked stocks.
(§1) Prior to use, the cells were analyzed by short tandem repeat (STR) profiling. Polymorphic STR loci were amplified using a polymerase chain reaction (PCR) primer set. The PCR product (each locus being labelled with a different fluorophore) was analyzed simultaneously with size standards using automated fluorescent detection. The number of repeats at 10 different loci (as recommended by the American Type Culture Collection, ATCC) was used to define the STR profile and this was cross-referenced with online databases to confirm authenticity. […]
the ATCC reference line (LGC Promochem, UK). The cells were free of mycoplasma contamination as determined by a sensitive nested PCR protocol (Venor GeM kit, Minerva Biolabs, Germany). […]
Samples were sonicated and centrifuged at 20,000 x g for 15 min and the protein extract (supernatant) collected. The total protein of samples was determined using a bicinchoninic acid (BCA) protein assay kit (Thermo Fisher Scientific). […]
Samples were treated, harvested and lysed as described above. […] The data was analyzed with the Compass software (ProteinSimple). […]

pirin = target: T2, pirin (Homo sapiens, UniProt O00625); assay: Pirin SPR (surface plasmon resonance) binding
T2 sequence (O00625 1-290): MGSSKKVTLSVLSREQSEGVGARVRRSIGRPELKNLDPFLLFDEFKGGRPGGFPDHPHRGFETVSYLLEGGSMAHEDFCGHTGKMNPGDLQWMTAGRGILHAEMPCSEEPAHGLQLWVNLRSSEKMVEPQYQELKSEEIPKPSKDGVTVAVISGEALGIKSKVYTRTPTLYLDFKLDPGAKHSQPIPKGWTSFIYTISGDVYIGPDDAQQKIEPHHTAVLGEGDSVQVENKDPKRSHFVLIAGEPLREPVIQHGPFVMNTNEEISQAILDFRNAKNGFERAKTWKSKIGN

[1] = Kinetic solubility determination by RP-HPLC; conditions: PBS, pH 7.4, aqueous buffer, kinetic from dmso stock
CRBN-DDB1 complex = target: T3, CRBN-DDB1 complex (Homo sapiens, UniProt Q96SW2); assay: CRBN/DDB1 fluorescence polarization competition assay; format: binding
T3 construct: His6-ZZ-HRV3C (N); made in house; host or cells: Sf9 insect cells (baculovirus co-infection)
Protocol: CRBN/DDB1 Fluorescence Polarization Assay […]
Unless otherwise stated, the aqueous assay buffer contained 0.02 M HEPES((4-(2-hydroxyethyl)-1-piperazineethanesulfonic acid)) pH 8.0, 0.15 M NaCl, 0.5 mM TCEP ((tris(2-carboxyethyl)phosphine)), 0.05% Tween 20. The assay was conducted using 384 well black plates (ProxiPlate F Plus, Perkin-Elmer, Massachusetts, USA).
Plate Reader. […] Fluorescence […]
polarization was measured in units of millipolarization (mP) and are background corrected. Data were plotted and analyzed using […]
All experiments were performed in triplicate unless otherwise stated. Values are quoted as the geometric […]
Each graph is a representative example of a single biological repeat unless otherwise stated.
CRBN/DDB1 Protein Expression & Purification
Protein expression and purification methods adapted from Lopez-Girona et al.5 Full length human CRBN (accession number NM016302) was amplified by PCR & inserted downstream of the polyhedrin promoter of a pFBDM expression vector which had been modified to introduce a N-terminal His6-ZZ-HRV3C tag. Full length human DDB1 (accession number NM001923) was amplified by PCR with primers which introduced a C-terminal StrepTag and inserted downstream of the p10 promoter of a separate pFBDM expression vector. Baculoviruses were generated according to Bac-to-Bac protocols (Invitrogen) and used to co-infect Sf9 cells grown @ 27 °C in shaker flasks using Insect-XPRESS media (Lonza). Cells were harvested 48 hours post infection and frozen. For purification, pellets were thawed & resuspended in 5 volumes of Histrap buffer A (see below) and lysed […]
Superdex 200 (HiLoad 26/600), ResourceQ (6 mL) and finally a second Superdex 200 (HiLoad 26/600) column. All columns were from GE Healthcare and all purification steps were performed @ 4 °C. HisTrap buffer A: 50mM Tris (2-Amino-2-(hydroxymethyl)propane-1,3-diol), 500mM NaCl, 0.5mM TCEP ((tris(2-carboxyethyl)phosphine), 5% glycerol, pH 8.0. HisTrap Buffer B: + 250 mM imidazole. Superdex 200 buffer: 50mM Tris, 200mM NaCl, 0.5mM TCEP, 5% glycerol, pH 8.0. Resource Q buffer A: 50mM Tris, 0.5mM TCEP, 5% Glycerol, pH8.0. Resource Q buffer B + 1M NaCl.
California, USA) to prepare CRBN/DDB1 concentrations from 0.1 to 500 nM in 10 µL final assay volume containing 5 nM FP- […]
point prior to analysis. The KD was calculated using non-linear regression and a one-site specific binding model.
Analysis of competition assay FP-probe bound fraction […]
fb=probe bound fraction, KD=probe dissociation constant, L0=probe concentration, R0=protein concentration, Ki=ligand […]
CRBN/DDB1 Competition Assay
Compounds as solutions in DMSO were dispensed using an ECHO 550 Liquid Handler (Labcyte Inc).
Tracer controls (5 nM FP-probe S18 assay buffer only) and bound tracer controls (5 nM and 80 nM CRBN/DDB1) were included on each assay plate . Plates were incubated overnight at 4 °C before warming to room temperature and fluorescence polarization measured using an EnVision plate reader (Perkin -Elmer, Massachusetts, USA). IC 50 values […]
Table S2. CRBN/DDB1 Control Compounds

[2] = LogD7.4 determination by RP-HPLC; conditions: pH 7.4
[3] = PDP aqueous stability protocol; conditions: 37 °C, pH 7.4 phosphate buffer
[4] = target: T4, pirin protein in SK-OV-3 human ovarian cancer cells (Homo sapiens, UniProt O00625); assay: Pirin depletion in SK-OV-3 cells (immunoblot / capillary electrophoresis immunoassay); format: cell-based; conditions: SK-OV-3 cells, Figure S18
T4 construct: endogenous in cells; host or cells: SK-OV-3
T4 sequence (O00625 1-290): T2 sequence (O00625 1-290)
Protocol: in vivo in athymic mice to increase its tumorigenicity and reliability as a xenograft, and used within 10 passages of banked stocks.
as §1
the ATCC reference line (LGC Promochem, UK). […]
nested PCR protocol (Venor GeM kit, Minerva Biolabs, Germany). Cells were grown in DMEM/10 % FCS, 2 mM glutamine and nonessential amino acids in 5 % CO2.
SK-OV-3 cells were treated as for each experimental condition. Cells were harvested and lysed by scraping in urea lysis buffer (20 mM HEPES pH 8.0, 9 M urea, 1 mM sodium orthovanadate, 2.5 mM sodium pyrophosphate, 1 mM β-glycerophosphate). […]
of samples was determined using a bicinchoninic acid (BCA) protein assay kit (Thermo Fisher Scientific). Western blotting was carried out as previously described.10 Pirin and GAPDH antibodies were obtained from Abcam (ab157212) and Merck […]
Samples were treated, harvested and lysed as described above. A total of 5 μL of 0.2 mg/mL protein was loaded into plates and capillary western analysis was carried out according to the manufacturer’s instructions (ProteinSimple WES). The data was analyzed with the Compass software (ProteinSimple).
Sigma-Aldrich and Cell Signaling Technology, respectively.
10 Sharp SY, Boxall K, Rowlands M, Prodromou C, Roe SM, Maloney A, Powers M, Clarke PA, Box G, Sanderson S, Patterson L, Matthews TP, Cheung KM, Ball K, Hayes A, Raynaud F, Marais R, Pearl L, Eccles S, Aherne W, McDonald E, Workman P. In vitro biological characterization of a novel, synthetic diaryl pyrazole resorcinol class of heat shock protein 90 inhibitors.

[5] = Chemical stability as solid and in DMSO stock solution; format: physicochemical; conditions: room temperature, data not shown

O=C1CCC(N2C(=O)c3ccccc3C2=O)C(=O)N1 (stereo not shown) [Thalidomide]
Rescue of pirin depletion by thalidomide pretreatment (CRBN): rescues pirin protein depletion; also recorded: successfully rescued pirin depletion

O=C(COc1cccc2c1C(=O)N(C1CCC(=O)NC1=O)C2=O)NCCOCCC(=O)N1CCN(Cc2ccc3cc(C(=O)Nc4cc(NC(=O)c5ccc6c(c5)OCCO6)ccc4F)ccc3n2)CC1 (stereo not shown) [PDP 10, N-(5-(2,3-Dihydrobenzo[b][1,4]dioxine-6-carboxamido)-2-fluorophenyl)-2-((4-(3-(2-(2-((2-(2,6-dioxopiperidin-3-yl)-1,3-dioxoisoindolin-4-yl)oxy)acetamido)ethoxy)propanoyl)piperazin-1-yl)methyl)quinoline-6-carboxamide]
Kd (pirin; Pirin SPR KD, equilibrium analysis, one site specific binding model, geometric mean n = 3): 230 nM
Kd (pirin; Pirin SPR KD, representative single repeat, best-fit value, one site specific binding): 224 nM
Kd (pirin; Pirin SPR pKD±SEM, n = 3 independent biological repeats): 234 nM
Measured Rmax/Theoretical Rmax (pirin; SPR): 0.40
solubility kinetic at 120 min [1]: 5 µM (≈ 4.85 µg/mL)
IC50 (CRBN-DDB1 complex; CRBN/DDB1 FP IC50, single repeat N=2, best-fit value, variable slope four parameters): 331 nM
IC50 (CRBN-DDB1 complex; best-fit value, variable slope four parameters, read-out: CRBN/DDB1 FP IC50, single repeat N=1): 568 nM
IC50 (CRBN-DDB1 complex; best-fit value, variable slope four parameters, read-out: CRBN/DDB1 FP IC50, single repeat N=3): 377 nM
Ki (CRBN-DDB1 complex; calculated from geometric mean CRBN-DDB1 IC50 and FP-probe KD): 95 nM
IC50 (CRBN-DDB1 complex; column statistics, read-out: CRBN/DDB1 FP pIC50, mean of 3 values (unrounded) (converted)): 414 nM
IC50 (CRBN-DDB1 complex; displacement of thalidomide derived fluorescent probe, geometric mean n = 3, read-out: CRBN/DDB1 FP IC50): 410 nM
IC50 (CRBN-DDB1 complex; n = 3 independent biological repeats, read-out: CRBN/DDB1 FP pIC50±SEM (converted)): 417 nM
chromatographic logD [2]: 1.9
Half-life (aqueous stability) [3]: ~4 h
half-life at 100 µM ([3]; phosphate buffer (PBS), pH 7.4, Half-life (aqueous stability)): 4.1 h
Depletion of intracellular pirin expression ([4]; 3.0 μM total concentration, up to 48 h): clear and time-dependent depletion of intracellular pirin expression
Compound exposure needed before pirin degradation was observed [4]: at least 24 h
Time stable as a solid and in DMSO stock solution [5]: > 1 month
